Measurements published in the supplement of paper PMC10307832.

Assays:
Experiment in all cases: relative viability (nuclei count vs DMSO), 5 days (fraction); higher = more cells survive
CX-5461 = compound: Cc1cnc(CNC(=O)c2c(=O)c3ccc(N4CCCN(C)CC4)nc3n3c2sc2ccccc23)cn1 [CX-5461]
In short: (§1)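 Five library-drug doses, separated by factors of √10, were pinned into 1536-well plates holding lung cancer cell lines after an overnight stay at 37 °C. Cells were fixed, permeabilised and Hoechst-stained in one step after 5 days without medium change, then imaged at 4×. Viability compares treated-well with vehicle-well nuclei, counted in MetaXpress, as a median across plates. Passing plates had control CV below 25% and at least one doubling.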

IMD-0354 = compound: O=C(Nc1cc(C(F)(F)F)cc(C(F)(F)F)c1)c1cc(Cl)ccc1O [IMD-0354]
In short: as §1

CX-5461 + Navitoclax = compound: Cc1cnc(CNC(=O)c2c(=O)c3ccc(N4CCCN(C)CC4)nc3n3c2sc2ccccc23)cn1 [CX-5461] + CC1(C)CCC(c2ccc(Cl)cc2)=C(CN2CCN(c3ccc(C(=O)NS(=O)(=O)c4ccc(N[C@H](CCN5CCOCC5)CSc5ccccc5)c(S(=O)(=O)C(F)(F)F)c4)cc3)CC2)C1 [Navitoclax] (partner 0.5 µM)
In short: (§2)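 Lung cancer cell lines, seeded in 1536-well plates, were treated the following day by pin tool with a single drug or with five library-drug doses (not always all listed) in √10 steps on top of a fixed anchor-drug dose. Cells were fixed and nuclei stained in one step after 5 days, and nuclei were counted. Relative viability is the nuclei count for treated wells divided by that for vehicle wells, reported as medians of duplicate plates.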

IMD-0354 + Tozasertib = compound: O=C(Nc1cc(C(F)(F)F)cc(C(F)(F)F)c1)c1cc(Cl)ccc1O [IMD-0354] + Cc1cc(Nc2cc(N3CCN(C)CC3)nc(Sc3ccc(NC(=O)C4CC4)cc3)n2)n[nH]1 [Tozasertib] (partner 0.1 µM)
In short: as §2

UMC-11
relative viability (CX-5461; 0.01 µM): 1.09 | relative viability (CX-5461; 0.03162 µM): 0.994 | relative viability (CX-5461; 0.1 µM): 0.928 | relative viability (CX-5461; 0.3162 µM): 0.909 | relative viability (CX-5461; 1 µM): 0.382 | relative viability (IMD-0354; 0.04 µM): 1.1 | relative viability (IMD-0354; 0.1265 µM): 1.04 | relative viability (IMD-0354; 0.4 µM): 0.551 | relative viability (IMD-0354; 1.265 µM): 0.224 | relative viability (IMD-0354; 4 µM): 0.271 | relative viability (CX-5461 + Navitoclax; first compound 0.01 µM): 0.319 | relative viability (CX-5461 + Navitoclax; first compound 0.03162 µM): 0.294 | relative viability (CX-5461 + Navitoclax; first compound 0.1 µM): 0.302 | relative viability (CX-5461 + Navitoclax; first compound 0.3162 µM): 0.282 | relative viability (CX-5461 + Navitoclax; first compound 1 µM): 0.23 | relative viability (IMD-0354 + Tozasertib; first compound 0.04 µM): 0.202 | relative viability (IMD-0354 + Tozasertib; first compound 0.1265 µM): 0.219 | relative viability (IMD-0354 + Tozasertib; first compound 0.4 µM): 0.187 | relative viability (IMD-0354 + Tozasertib; first compound 1.265 µM): 0.182 | relative viability (IMD-0354 + Tozasertib; first compound 4 µM): 0.203
